Results from patent publication US8507472B2 (priority 2010, dated 2013).

Tested on: Pyrenophora teres
Assay: Pyrenophora teres test (barley)/protective
Type: in vivo
Details: in vivo
Description: Solvent: 49 parts by weight of N,N-dimethylformamide
Emulsifier: 1 part by weight of alkylaryl polyglycol ether
To produce a suitable preparation of active compounds, 1 part by weight of active compound is mixed with the stated amounts of solvent and emulsifier, and the concentrate is diluted with water to the desired concentration.
To test for protective activity, young barley plants are sprayed with the active compound preparation at the stated application rate. 1 day after the treatment, the plants are inoculated with an aqueous spore suspension of Pyrenophora teres and then remain at 100% rel. atmospheric humidity and 22° C. for 48 h. The plants are then placed in a greenhouse at 80% rel. atmospheric humidity and a temperature of 20° C.
Evaluation is carried out 7-9 days after the inoculation. 0% means an efficacy which corresponds to that of the control, whereas an efficacy of 100% means that no infection is observed.

Q: For `CC(C)CNc1cc(-c2c(-c3cccc(F)c3)nn3c2CCC3)ccn1` [Example 73], which efficacy in % is on record?
A: The efficacy in % was 70%.

Q: With `CC(C)CNc1cc(-c2c(-c3ccccc3)nn3c2CCC3)ccn1` [Example 72] as the compound, how does the efficacy in % read?
A: Its efficacy in % is 80%.

Q: For `CC(C)CC(=O)Nc1cc(-c2c(-c3ccc(F)cc3)nn3c2CCOC3(C)C)ccn1` [Example 105], which efficacy in % is on record?
A: The efficacy in % was 95%.

Q: With `Nc1cc(-c2c(-c3ccc(F)cc3)nn3c2CCOC3)ccn1` [Example 103] as the compound, how does the efficacy in % read?
A: The efficacy in % was 90%.

Tested on: not listed separately
Assay: log P determination by HPLC retention times (alkan-2-one calibration)
Details: HCOOH; preparation examples in the text

Q: Which “log P(HCOOH)” value does the source give for `CC(Cl)CCC(=O)NN=C(c1ccccc1)c1ccccc1` (stereo not shown) [XXV-1, 4-Chloro-N′-(diphenylmethylene)pentane hydrazide] here?
A: Its value is 3.76.

Same assay, conditions: log P(HCOOH), HCOOH; preparation examples in the text

Q: For `c1ccc(-c2cc3n(n2)CCSC3)cc1` [VIIb-1, 2-Phenyl-6,7-dihydro-4H-pyrazolo[5,1-c][1,4]thiazine], which chromatographic logP is on record?
A: The chromatographic logP was 2.46.

Q: With `Fc1cccc(-c2nn3c(c2I)CCC3)c1` [VIII-11, 2-[3-Fluorophenyl]-3-iodo-5,6-dihydro-4H-pyrrolo[1,2-b]pyrazole] as the compound, how does the chromatographic logP read?
A: The chromatographic logP was 3.32.

Q: With `COC(=O)c1c(-c2ccc(F)cc2)nn2c1CCC2C` (stereo not shown) [XXX-1, Methyl 2-(4-fluorophenyl)-6-methyl-5,6-dihydro-4H-pyrrolo[1,2-b]pyrazole-3-carboxylate] as the compound, how does the chromatographic logP read?
A: The chromatographic logP was 2.84.

Q: For `FC(F)(F)c1ccc(-c2cc3n(n2)CCC3)cc1` [VII-9, 2-[4-(Trifluoromethyl)phenyl]-5,6-dihydro-4H-pyrrolo[1,2-b]pyrazole], which chromatographic logP is on record?
A: The chromatographic logP was 3.2.

Q: With `Fc1ccc(-c2nn3c(c2Br)COCC3)cc1` [VIII-17, 3-Bromo-2-(4-fluorophenyl)-6,7-dihydro-4H-pyrazolo[5,1-c][1,4]oxazine] as the compound, how does the chromatographic logP read?
A: The chromatographic logP was 2.9.

Q: With `OCc1cc(-c2ccc(F)cc2)nn1CCCl` [XIII-1, [1-(2-Chloroethyl)-3-(4-fluorophenyl)-1H-pyrazol-5-yl]methanol] as the compound, how does the chromatographic logP read?
A: Its chromatographic logP is 1.84.

Q: Which chromatographic logP does the source give for `CC1CCn2nc(-c3ccc(F)cc3)c(I)c21` (stereo not shown) [VIII-21, 2-(4-Fluorophenyl)-3-iodo-4-methyl-5,6-dihydro-4H-pyrrolo[1,2-b]pyrazole] here?
A: The chromatographic logP was 3.67.

Q: For `CC1CCN(N=C(c2ccccc2)c2ccccc2)C1=O` (stereo not shown) [XXV-3, 1-[(Diphenylmethylene)amino]-3-methylpyrrolidin-2-one], which chromatographic logP is on record?
A: The chromatographic logP was 2.62.

Q: For `CC1(C)OCCc2c(I)c(-c3ccc(F)cc3)nn21` [VIII-16, 2-(4-Fluorophenyl)-3-iodo-7,7-dimethyl-4,5-dihydropyrazolo[1,5-c][1,3]oxazine], which chromatographic logP is on record?
A: The chromatographic logP was 4.28.

Q: Which chromatographic logP does the source give for `O=C1CCCN1N=C(c1ccccc1)c1ccccc1` [XXVI-2, 1-[(Diphenylmethylene)amino]pyrrolidin-2-one] here?
A: Its chromatographic logP is 2.23.

Q: For `Fc1ccc(-c2cc3n(n2)CCCC3)cc1` [VII-1, 2-(4-Fluorophenyl)-4,5,6,7-tetrahydropyrazolo[1,5-a]pyridine], which chromatographic logP is on record?
A: The chromatographic logP was 2.76.

Q: With `O=C(C#CCCOCc1ccccc1)c1ccc(F)cc1` [XX-1, 5-(Benzyloxy)-1-(4-fluorophenyl)pent-2-yn-1-one] as the compound, how does the chromatographic logP read?
A: Its chromatographic logP is 3.89.

Q: Which chromatographic logP does the source give for `OCc1cc(-c2ccccc2)n[nH]1` [XIV-1, (3-Phenyl-1H-pyrazol-5-yl)methanol] here?
A: The chromatographic logP was 1.14.

Q: For `Ic1c(-c2ccccc2)nn2c1COCC2` [VIII-15, 3-Iodo-2-phenyl-6,7-dihydro-4H-pyrazolo[5,1-c][1,4]oxazine], which chromatographic logP is on record?
A: Its chromatographic logP is 2.82.

Q: Which chromatographic logP does the source give for `COC(=O)c1cc(-c2ccc(F)cc2)nn1CCCl` [XI-1, Methyl 1-(2-chloroethyl)-3-(4-fluorophenyl)-1H-pyrazole-5-carboxylate] here?
A: Its chromatographic logP is 3.58.

Q: For `Ic1c(-c2ccccc2)nn2c1CCCC2` [VIII-12, 2-(Phenyl)-3-iodo-4,5,6,7-tetrahydropyrazolo[1,5-a]pyridine], which chromatographic logP is on record?
A: The chromatographic logP was 3.55.

Q: With `c1cc(-c2cc3n(n2)CCCC3)cs1` [VII-12, 2-(3-Thienyl)-4,5,6,7-tetrahydropyrazolo[1,5-a]pyridine] as the compound, how does the chromatographic logP read?
A: Its chromatographic logP is 2.25.

Q: With `Fc1ccc(C#Cc2ccnc(Cl)c2)cc1` [II-6, 2-Chloro-4-[(4-fluorophenyl)ethynyl]pyridine] as the compound, how does the chromatographic logP read?
A: Its chromatographic logP is 3.8.

Q: For `O=C(O)c1c(-c2ccccc2F)nn2c1CCC2` [XXXI-4, 2-(2-Fluorophenyl)-5,6-dihydro-4H-pyrrolo[1,2-b]pyrazole-3-carboxylic acid], which chromatographic logP is on record?
A: Its chromatographic logP is 1.35.

Q: With `FC(F)(F)c1ccc(C#Cc2ccncc2)cc1` [II-1, 4-{[4-(Trifluoromethyl)phenyl]ethynyl}pyridine] as the compound, how does the chromatographic logP read?
A: Its chromatographic logP is 2.86.

Q: For `Fc1ccc(-c2cc(CCOCc3ccccc3)[nH]n2)cc1` [XXI, 5-[2-(Benzyloxy)ethyl]-3-(4-fluorophenyl)-1H-pyrazole], which chromatographic logP is on record?
A: Its chromatographic logP is 3.09.

Q: With `CC1CCc2c(Br)c(-c3ccc(F)cc3)nn21` (stereo not shown) [VIII-20, 2-(4-Fluorophenyl)-3-bromo-6-methyl-5,6-dihydro-4H-pyrrolo[1,2-b]pyrazole] as the compound, how does the chromatographic logP read?
A: Its chromatographic logP is 3.77.

Q: With `ClCc1cc(-c2ccccc2)n[nH]1` [XV-1, 5-(Chloromethyl)-3-phenyl-1H-pyrazole] as the compound, how does the chromatographic logP read?
A: The chromatographic logP was 2.05.

Q: With `Ic1c(-c2ccsc2)nn2c1CCCC2` [VIII-14, 2-(3-Thienyl)-3-iodo-4,5,6,7-tetrahydropyrazolo[1,5-a]pyridine] as the compound, how does the chromatographic logP read?
A: Its chromatographic logP is 3.4.

Q: Which chromatographic logP does the source give for `FC(F)(F)c1cccc(-c2cc3n(n2)CCC3)c1` [VII-6, 2-[3-(Trifluoromethyl)phenyl]-5,6-dihydro-4H-pyrrolo[1,2-b]pyrazole] here?
A: Its chromatographic logP is 3.25.

Q: With `Ic1c(-c2ccccc2)nn2c1CCC2` [VIII-5, 2-(Phenyl)-3-iodo-5,6-dihydro-4H-pyrrolo[1,2-b]pyrazole] as the compound, how does the chromatographic logP read?
A: The chromatographic logP was 3.09.

Q: Which chromatographic logP does the source give for `CC1CCn2nc(-c3ccc(F)cc3)c(C(=O)O)c21` (stereo not shown) [XXXI-2, 2-(4-Fluorophenyl)-4-methyl-5,6-dihydro-4H-pyrrolo[1,2-b]pyrazole-3-carboxylic acid] here?
A: Its chromatographic logP is 1.84.

Q: For `FC(F)(F)c1cccc(-c2nn3c(c2I)CCC3)c1` [VIII-3, 2-[3-(Trifluoromethyl)phenyl]-3-iodo-5,6-dihydro-4H-pyrrolo[1,2-b]pyrazole], which chromatographic logP is on record?
A: Its chromatographic logP is 4.11.

Q: With `COc1ccc(-c2nn3c(c2I)CCC3)cc1` [VIII-9, 2-[4-(Methoxy)phenyl]-3-iodo-5,6-dihydro-4H-pyrrolo[1,2-b]pyrazole] as the compound, how does the chromatographic logP read?
A: The chromatographic logP was 3.01.

Q: Which chromatographic logP does the source give for `Cc1ccc(-c2cc3n(n2)CCC3)cc1` [VII-8, 2-[4-Methylphenyl]-5,6-dihydro-4H-pyrrolo[1,2-b]pyrazole] here?
A: Its chromatographic logP is 2.64.

Q: For `Fc1ccc(-c2nn3c(c2I)CCCCC3)cc1` [VIII-2, 2-(4-Fluorophenyl)-3-iodo-5,6,7,8-tetrahydro-4H-pyrazolo[1,5-a]azepine], which chromatographic logP is on record?
A: Its chromatographic logP is 4.35.

Q: Which chromatographic logP does the source give for `[O-]c1on[n+]2c1CCCC2` [III-2, 4,5,6,7-Tetrahydro[1,2,3]oxadiazolo[3,4-a]pyridin-8-ium 3-olate] here?
A: The chromatographic logP was 0.59.

Q: Which chromatographic logP does the source give for `c1cc(-c2cc3n(n2)CCC3)cs1` [VII-13, 2-[3-Thienyl]-5,6-dihydro-4H-pyrrolo[1,2-b]pyrazole] here?
A: The chromatographic logP was 2.01.

Q: With `c1ccc(-c2cc3n(n2)CCCC3)cc1` [VII-5, 2-(Phenyl)-4,5,6,7-tetrahydropyrazolo[1,5-a]pyridine] as the compound, how does the chromatographic logP read?
A: The chromatographic logP was 2.57.

Q: For `Fc1ccc(-c2nn3c(c2I)CCOC3)cc1` [VIIIa-1, 2-(4-Fluorophenyl)-3-iodo-4,5-dihydropyrazolo[1,5-c][1,3]oxazine], which chromatographic logP is on record?
A: Its chromatographic logP is 3.23.

Q: With `Ic1c(-c2cccs2)nn2c1CCCC2` [VIII-13, 2-(2-Thienyl)-3-iodo-4,5,6,7-tetrahydropyrazolo[1,5-a]pyridine] as the compound, how does the chromatographic logP read?
A: Its chromatographic logP is 3.45.

Same assay, conditions: pH 7, log P(pH7), pH7; preparation examples in the text

Q: With `Fc1ccc(C#Cc2ccncc2)cc1` [II-4, 4-{[4-Fluorophenyl]ethynyl}pyridine] as the compound, how does the chromatographic logP read?
A: The chromatographic logP was 2.81.

Q: With `COc1ccc(C#Cc2ccncc2)cc1` [II-3, 4-{[4-(Methoxy)phenyl]ethynyl}pyridine] as the compound, how does the chromatographic logP read?
A: The chromatographic logP was 2.68.
